Source: patent US7704995B2 (Exelixis, Inc., priority 2003, dated 2010)

Target: T1, Chk1 (Homo sapiens, UniProt O14757)
T1 construct: purchased Upstate Biotechnology
T1 sequence (O14757 1-476): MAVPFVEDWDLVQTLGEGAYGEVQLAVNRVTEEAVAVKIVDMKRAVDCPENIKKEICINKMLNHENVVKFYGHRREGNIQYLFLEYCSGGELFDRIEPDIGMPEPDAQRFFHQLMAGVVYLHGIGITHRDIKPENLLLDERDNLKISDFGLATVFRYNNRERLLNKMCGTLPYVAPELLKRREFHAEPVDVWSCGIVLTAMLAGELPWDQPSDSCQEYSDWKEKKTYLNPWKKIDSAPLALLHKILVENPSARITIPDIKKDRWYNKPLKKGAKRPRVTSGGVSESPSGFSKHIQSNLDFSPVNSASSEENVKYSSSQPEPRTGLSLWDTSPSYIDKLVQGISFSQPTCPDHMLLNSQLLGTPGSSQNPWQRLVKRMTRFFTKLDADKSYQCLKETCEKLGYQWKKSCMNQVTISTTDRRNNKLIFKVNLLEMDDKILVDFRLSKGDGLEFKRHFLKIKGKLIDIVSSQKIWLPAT
Test: Chk1 kinase assay: incorporation of γ-33P ATP into immobilized myelin basic protein
Type: biochemical
Settings: Table 11, Chk1 only; class symbols A-D; read-out: Chk1 IC50
Summary of the method: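 Incorporation of γ-33P into myelin basic protein coated on plates was scintillation-counted after 1 h at room temperature, duplicate points. Unlabeled ATP was 10 μM with 10 nM Chk1, 30 μM with 20 nM Chk2; buffer Hepes pH 7.6, MgCl2, DTT, 1% DMSO. Output IC50, optionally converted to Ki.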

Structure (SMILES) | IC50
Nc1ncc(-c2cccc(C(=O)NCc3c(F)ccc(Cl)c3F)c2)nc1C(=O)N[C@H]1CCCNC1 [Example 1000, 3-amino-6-[3-({[(3-chloro-2,6-difluorophenyl)methyl]amino}carbonyl)phenyl]-N-[(3S)-piperidin-3-yl]pyrazine-2-carboxamide] | < 50 nM
Nc1ncc(-c2cccc(C(=O)NCc3ccc(F)cc3Cl)c2)nc1C(=O)N[C@H]1CCCNC1 [Example 1002, 3-amino-6-[3-({[(2-chloro-4-fluorophenyl)methyl]amino}carbonyl)phenyl]-N-[(3S)-piperidin-3-yl]pyrazine-2-carboxamide] | < 50 nM
Nc1ncc(-c2cccc(C(=O)NCc3cccc(Cl)c3Cl)c2)nc1C(=O)N[C@H]1CCCNC1 [Example 1003, 3-amino-6-[3-({[(2,3-dichlorophenyl)methyl]amino}carbonyl)phenyl]-N-[(3S)-piperidin-3-yl]pyrazine-2-carboxamide] | < 50 nM
Nc1ncc(-c2cccc(C(=O)NCc3c(F)ccc(F)c3F)c2)nc1C(=O)N[C@H]1CCCNC1 [Example 1004, 3-amino-N-[(3S)-piperidin-3-yl]-6-[3-({[(2,3,6-trifluorophenyl)methyl]amino}carbonyl)phenyl]pyrazine-2-carboxamide] | < 50 nM
Nc1ncc(-c2cccc(C(=O)NCc3ccc(Cl)c(C(F)(F)F)c3)c2)nc1C(=O)N[C@H]1CCCNC1 [Example 1005, 3-amino-6-{3-[({[4-chloro-3-(trifluoromethyl)phenyl]methyl}amino)carbonyl]phenyl}-N-[(3S)-piperidin-3-yl]pyrazine-2-carboxamide] | < 50 nM
Nc1ncc(-c2cccc(C(=O)NCc3cccc(F)c3F)c2)nc1C(=O)N[C@H]1CCCCNC1 [Example 1007, 3-amino-N-[(3S)-azepan-3-yl]-6-[3-({[(2,3-difluorophenyl)methyl]amino}carbonyl)phenyl]pyrazine-2-carboxamide] | < 50 nM
Nc1ncc(-c2cccc(C(=O)NCc3ccc(F)c(F)c3)c2)nc1C(=O)N[C@H]1CCCCNC1 [Example 1008, 3-amino-N-[(3S)-azepan-3-yl]-6-[3-({[(3,4-difluorophenyl)methyl]amino}carbonyl)phenyl]pyrazine-2-carboxamide] | < 50 nM
Nc1ncc(-c2cccc(C(=O)NCc3cc(F)cc(F)c3)c2)nc1C(=O)N[C@H]1CCCCNC1 [Example 1009, 3-amino-N-[(3S)-azepan-3-yl]-6-[3-({[(3,5-difluorophenyl)methyl]amino}carbonyl)phenyl]pyrazine-2-carboxamide] | < 50 nM
Nc1ncc(-c2cccc(C(=O)NCc3c(F)cccc3F)c2)nc1C(=O)N[C@H]1CCCNC1 [Example 1010, 3-amino-6-[3-({[(2,6-difluorophenyl)methyl]amino}carbonyl)phenyl]-N-[(3S)-piperidin-3-yl]pyrazine-2-carboxamide] | < 50 nM
Nc1ncc(-c2cccc(C(=O)NCc3ccc(F)c(F)c3)c2)nc1C(=O)N[C@H]1CCCNC1 [Example 1011, 3-amino-6-[3-({[(3,4-difluorophenyl)methyl]amino}carbonyl)phenyl]-N-[(3S)-piperidin-3-yl]pyrazine-2-carboxamide] | < 50 nM
Cc1ccc(Cl)c(CNC(=O)c2cccc(-c3cnc(N)c(C(=O)N[C@H]4CCCNC4)n3)c2)c1F [Example 1012, 3-amino-6-[3-({[(6-chloro-2-fluoro-3-methylphenyl)methyl]amino}carbonyl)phenyl]-N-[(3S)-piperidin-3-yl]pyrazine-2-carboxamide] | < 50 nM
Cc1ccc(F)c(CNC(=O)c2cccc(-c3cnc(N)c(C(=O)N[C@H]4CCCNC4)n3)c2)c1Cl [Example 1013, 3-amino-6-[3-({[(2-chloro-6-fluoro-3-methylphenyl)methyl]amino}carbonyl)phenyl]-N-[(3S)-piperidin-3-yl]pyrazine-2-carboxamide] | < 50 nM
Nc1ncc(-c2cccc(C(=O)NCc3c(F)ccc(F)c3Cl)c2)nc1C(=O)N[C@H]1CCCNC1 [Example 1014, 3-amino-6-[3-({[(2-chloro-3,6-difluorophenyl)methyl]amino}carbonyl)phenyl]-N-[(3S)-piperidin-3-yl]pyrazine-2-carboxamide] | < 50 nM
Nc1ncc(-c2cccc(C(=O)NCc3cc(Cl)ccc3Cl)c2)nc1C(=O)N[C@H]1CCCNC1 [Example 1015, 3-amino-6-[3-({[(2,5-dichlorophenyl)methyl]amino}carbonyl)phenyl]-N-[(3S)-piperidin-3-yl]pyrazine-2-carboxamide] | < 50 nM
Nc1ncc(-c2cccc(C(=O)NCc3ccc(F)c(F)c3F)c2)nc1C(=O)N[C@H]1CCCNC1 [Example 1016, 3-amino-N-[(3S)-piperidin-3-yl]-6-[3-({[(2,3,4-trifluorophenyl)methyl]amino}carbonyl)phenyl]pyrazine-2-carboxamide] | < 50 nM
Nc1ncc(-c2cccc(C(=O)NCc3cccc(F)c3F)c2)nc1C(=O)N[C@H]1CCCNC1 [Example 1017, 3-amino-6-[3-({[(2,3-difluorophenyl)methyl]amino}carbonyl)phenyl]-N-[(3S)-piperidin-3-yl]pyrazine-2-carboxamide] | < 50 nM
Cc1ccc(CNC(=O)c2cccc(-c3cnc(N)c(C(=O)N[C@H]4CCCNC4)n3)c2)cc1F [Example 1018, 3-amino-6-[3-({[(3-fluoro-4-methylphenyl)methyl]amino}carbonyl)phenyl]-N-[(3S)-piperidin-3-yl]pyrazine-2-carboxamide] | < 50 nM
Nc1ncc(-c2cccc(C(=O)NCc3c(F)ccc(Cl)c3F)c2)nc1C(=O)N[C@H]1CCCCNC1 [Example 1019, 3-amino-N-[(3S)-azepan-3-yl]-6-[3-({[(3-chloro-2,6-difluorophenyl)methyl]amino}carbonyl)phenyl]pyrazine-2-carboxamide] | < 50 nM
Nc1ncc(-c2cccc(C(=O)NCc3ccc4c(c3)OCCO4)c2)nc1C(=O)N[C@H]1CCCCNC1 [Example 1020, 3-amino-N-[(3S)-azepan-3-yl]-6-(3-{[(2,3-dihydro-1,4-benzodioxin-6-ylmethyl)amino]carbonyl}phenyl)pyrazine-2-carboxamide] | < 50 nM
Nc1ncc(-c2cccc(C(=O)NCc3c(F)cccc3Cl)c2)nc1C(=O)N[C@H]1CCCCNC1 [Example 1021, 3-amino-N-[(3S)-azepan-3-yl]-6-[3-({[(2-chloro-6-fluorophenyl)methyl]amino}carbonyl)phenyl]pyrazine-2-carboxamide] | < 50 nM
Nc1ncc(-c2cccc(C(=O)NCc3c(F)cccc3F)c2)nc1C(=O)N[C@H]1CCCCNC1 [Example 1022, 3-amino-N-[(3S)-azepan-3-yl]-6-[3-({[(2,6-difluorophenyl)methyl]amino}carbonyl)phenyl]pyrazine-2-carboxamide] | < 50 nM
Nc1ncc(-c2cccc(C(=O)NCc3ccc(F)c(Cl)c3)c2)nc1C(=O)N[C@H]1CCCCNC1 [Example 1023, 3-amino-N-[(3S)-azepan-3-yl]-6-[3-({[(3-chloro-4-fluorophenyl)methyl]amino}carbonyl)phenyl]pyrazine-2-carboxamide] | < 50 nM
Nc1ncc(-c2cccc(C(=O)NCc3cccc(Cl)c3F)c2)nc1C(=O)N[C@H]1CCCCNC1 [Example 1024, 3-amino-N-[(3S)-azepan-3-yl]-6-[3-({[(3-chloro-2-fluorophenyl)methyl]amino}carbonyl)phenyl]pyrazine-2-carboxamide] | < 50 nM
Cc1c(Cl)cccc1CNC(=O)c1cccc(-c2cnc(N)c(C(=O)N[C@H]3CCCNC3)n2)c1 [Example 1025, 3-amino-6-[3-({[(3-chloro-2-methylphenyl)methyl]amino}carbonyl)phenyl]-N-[(3S)-piperidin-3-yl]pyrazine-2-carboxamide] | < 50 nM
COc1cccc(OC)c1CNC(=O)c1cccc(-c2cnc(N)c(C(=O)N[C@H]3CCCNC3)n2)c1 [Example 1026, 3-amino-6-{3-[({[2,6-bis(methyloxy)phenyl]methyl}amino)carbonyl]phenyl}-N-[(3S)-piperidin-3-yl]pyrazine-2-carboxamide] | 50 to 1000 nM
Nc1ncc(-c2cccc(C(=O)NCc3ccc(F)c(Br)c3)c2)nc1C(=O)N[C@H]1CCCNC1 [Example 1027, 3-amino-6-[3-({[(3-bromo-4-fluorophenyl)methyl]amino}carbonyl)phenyl]-N-[(3S)-piperidin-3-yl]pyrazine-2-carboxamide] | < 50 nM
Nc1ncc(-c2cccc(C(=O)NCc3cc(F)c(F)c(F)c3)c2)nc1C(=O)N[C@H]1CCCNC1 [Example 1028, 3-amino-N-[(3S)-piperidin-3-yl]-6-[3-({[(3,4,5-trifluorophenyl)methyl]amino}carbonyl)phenyl]pyrazine-2-carboxamide] | < 50 nM
Cc1cc(CNC(=O)c2cccc(-c3cnc(N)c(C(=O)N[C@H]4CCCNC4)n3)c2)ccc1F [Example 1029, 3-amino-6-[3-({[(4-fluoro-3-methylphenyl)methyl]amino}carbonyl)phenyl]-N-[(3S)-piperidin-3-yl]pyrazine-2-carboxamide] | < 50 nM
Nc1ncc(-c2cccc(C(=O)NCc3cc(F)cc(F)c3F)c2)nc1C(=O)N[C@H]1CCCNC1 [Example 1030, 3-amino-N-[(3S)-piperidin-3-yl]-6-[3-({[(2,3,5-trifluorophenyl)methyl]amino}carbonyl)phenyl]pyrazine-2-carboxamide] | < 50 nM
